Experimental data: patent publication US8148388B2, “2,4 (4,6) pyrimidine derivatives” (Janssen Pharmaceutica, N.V., priority 2004, dated 2012)

Legend:
Assay type in all cases: biochemical
Abl (h) = Abl (h) (Homo sapiens, UniProt P00519); assay: Abl human kinase assay (glass-fiber filter); conditions: test concentration of 10^−6M; for inhibition at 1 µM: read-out: C1 score (inhibition of Abl human)
cSRC (h) = cSRC (h) (Homo sapiens, UniProt P12931); assay: cSRC human kinase assay (glass-fiber filter); conditions: test concentration of 10^−6M; for inhibition at 1 µM: read-out: C3 score (inhibition of cSRC human)
Procedure, shortened: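 Radiometric assay: kinase and substrate are incubated with [33P]ATP, with the reaction started by MgATP mix. The reaction is spotted on P30 filtermat, washed in 75 mM phosphoric acid and methanol, and the bound 33P is measured by scintillation counting.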

Fes (h) = Fes (h) (Homo sapiens, UniProt P07332); assay: Fes human kinase assay (glass-fiber filter); conditions: test concentration of 10^−6M; for inhibition at 1 µM: read-out: C4 score (inhibition of Fes human)
Fes (h), sequence (P07332 whole entry): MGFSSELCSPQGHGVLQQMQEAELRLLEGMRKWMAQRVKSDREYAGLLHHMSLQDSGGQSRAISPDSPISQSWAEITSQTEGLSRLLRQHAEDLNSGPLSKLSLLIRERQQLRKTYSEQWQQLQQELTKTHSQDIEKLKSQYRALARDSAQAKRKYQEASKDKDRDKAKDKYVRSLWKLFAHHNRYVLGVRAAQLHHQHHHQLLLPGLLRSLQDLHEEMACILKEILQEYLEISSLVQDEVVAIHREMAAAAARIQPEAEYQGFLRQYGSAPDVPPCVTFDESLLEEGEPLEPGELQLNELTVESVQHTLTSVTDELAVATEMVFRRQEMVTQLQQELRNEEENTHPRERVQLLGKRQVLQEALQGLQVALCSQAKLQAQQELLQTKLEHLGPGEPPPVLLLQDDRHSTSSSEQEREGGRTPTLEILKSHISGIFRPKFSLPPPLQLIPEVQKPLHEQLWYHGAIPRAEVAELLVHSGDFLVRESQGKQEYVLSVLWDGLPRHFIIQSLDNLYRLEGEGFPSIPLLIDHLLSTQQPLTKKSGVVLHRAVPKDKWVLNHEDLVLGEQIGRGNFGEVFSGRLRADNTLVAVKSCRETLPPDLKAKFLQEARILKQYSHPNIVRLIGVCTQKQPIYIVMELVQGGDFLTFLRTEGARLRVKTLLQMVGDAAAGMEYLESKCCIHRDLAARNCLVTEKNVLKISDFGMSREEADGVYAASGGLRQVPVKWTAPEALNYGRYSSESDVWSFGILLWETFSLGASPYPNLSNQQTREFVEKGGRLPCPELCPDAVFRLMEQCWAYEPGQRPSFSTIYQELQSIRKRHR
Procedure, shortened: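 Human Fes (5–10 mU) was incubated with 0.1 mg/ml poly(Glu,Tyr) 4:1 in 8 mM MOPS pH 7.0, 0.2 mM EDTA, 10 mM Mg acetate and [γ-33P]ATP for 40 min at room temperature. The reaction was stopped with phosphoric acid, and substrate phosphorylation was quantified by filter binding and scintillation counting.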

Flt3 (h) = Flt3 (h) (Homo sapiens, UniProt P36888); assay: Flt3 human kinase assay (glass-fiber filter); conditions: test concentration of 10^−6M; for inhibition at 1 µM: read-out: C6 score (inhibition of Flt3 human)
Flt3 (h), sequence (P36888 27-993): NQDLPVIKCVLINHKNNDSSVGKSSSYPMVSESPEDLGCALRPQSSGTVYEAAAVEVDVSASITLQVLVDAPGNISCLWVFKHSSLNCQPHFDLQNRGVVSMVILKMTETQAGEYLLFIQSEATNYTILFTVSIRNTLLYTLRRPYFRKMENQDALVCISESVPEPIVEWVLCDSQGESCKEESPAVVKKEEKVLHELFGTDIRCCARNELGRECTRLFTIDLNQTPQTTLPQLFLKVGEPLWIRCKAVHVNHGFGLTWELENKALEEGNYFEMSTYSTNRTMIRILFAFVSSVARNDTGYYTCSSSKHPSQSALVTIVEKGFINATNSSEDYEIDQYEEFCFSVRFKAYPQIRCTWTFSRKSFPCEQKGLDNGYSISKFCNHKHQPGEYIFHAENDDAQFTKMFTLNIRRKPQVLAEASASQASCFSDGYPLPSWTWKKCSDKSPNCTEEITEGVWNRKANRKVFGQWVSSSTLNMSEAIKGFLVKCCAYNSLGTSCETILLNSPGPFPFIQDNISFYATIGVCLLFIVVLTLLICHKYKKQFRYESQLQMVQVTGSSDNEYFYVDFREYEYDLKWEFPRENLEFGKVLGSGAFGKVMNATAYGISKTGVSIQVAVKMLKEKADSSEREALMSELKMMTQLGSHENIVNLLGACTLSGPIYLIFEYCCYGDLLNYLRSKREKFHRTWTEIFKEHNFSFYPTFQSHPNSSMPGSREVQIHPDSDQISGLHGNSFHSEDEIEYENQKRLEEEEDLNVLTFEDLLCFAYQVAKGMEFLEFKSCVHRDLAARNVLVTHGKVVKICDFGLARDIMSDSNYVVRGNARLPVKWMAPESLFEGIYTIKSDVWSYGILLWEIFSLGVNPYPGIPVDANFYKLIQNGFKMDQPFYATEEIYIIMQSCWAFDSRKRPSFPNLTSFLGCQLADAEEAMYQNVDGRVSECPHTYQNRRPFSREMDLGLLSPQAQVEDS
Procedure, shortened: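 Human Flt3 (5-10 mU) with 50 μM peptide substrate in 8 mM MOPS pH 7.0, 0.2 mM EDTA, 10 mM Mg acetate and [γ-33P]ATP (concentration as required), 40 min at room temperature. Reaction stopped with phosphoric acid; substrate 33P incorporation counted on P30 glass-fiber filter.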

Abl (h), sequence (P00519 whole entry): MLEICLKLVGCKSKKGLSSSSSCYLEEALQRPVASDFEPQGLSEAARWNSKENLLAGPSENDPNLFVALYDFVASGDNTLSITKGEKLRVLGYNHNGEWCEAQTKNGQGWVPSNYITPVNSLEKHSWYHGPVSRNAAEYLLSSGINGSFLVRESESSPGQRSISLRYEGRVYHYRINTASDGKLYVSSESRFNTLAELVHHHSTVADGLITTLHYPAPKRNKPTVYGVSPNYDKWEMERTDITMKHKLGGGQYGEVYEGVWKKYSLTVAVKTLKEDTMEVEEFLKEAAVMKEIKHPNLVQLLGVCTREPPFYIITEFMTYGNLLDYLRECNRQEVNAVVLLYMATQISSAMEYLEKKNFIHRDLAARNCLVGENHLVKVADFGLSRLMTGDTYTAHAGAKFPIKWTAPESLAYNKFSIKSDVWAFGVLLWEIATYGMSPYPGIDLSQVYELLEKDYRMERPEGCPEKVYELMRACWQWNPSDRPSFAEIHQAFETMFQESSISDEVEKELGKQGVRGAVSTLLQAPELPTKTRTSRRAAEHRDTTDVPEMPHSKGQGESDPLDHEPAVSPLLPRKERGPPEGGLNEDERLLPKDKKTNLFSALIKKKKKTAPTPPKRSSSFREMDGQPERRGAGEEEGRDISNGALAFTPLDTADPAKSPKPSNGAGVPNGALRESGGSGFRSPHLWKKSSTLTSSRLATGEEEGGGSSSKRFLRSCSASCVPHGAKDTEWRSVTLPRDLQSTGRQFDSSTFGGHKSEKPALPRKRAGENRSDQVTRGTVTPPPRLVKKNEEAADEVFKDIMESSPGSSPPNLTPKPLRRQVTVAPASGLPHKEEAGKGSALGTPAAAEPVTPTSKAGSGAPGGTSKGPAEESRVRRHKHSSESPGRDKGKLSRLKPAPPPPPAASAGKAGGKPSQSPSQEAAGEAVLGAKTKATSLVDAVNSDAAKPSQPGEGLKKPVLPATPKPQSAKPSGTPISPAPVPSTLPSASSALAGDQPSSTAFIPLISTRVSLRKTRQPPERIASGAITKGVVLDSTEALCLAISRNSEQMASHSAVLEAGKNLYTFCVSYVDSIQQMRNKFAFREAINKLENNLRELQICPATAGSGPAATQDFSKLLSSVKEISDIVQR

| inhibition at 1 µM (Abl (h)) | inhibition at 1 µM (cSRC (h)) | inhibition at 1 µM (Fes (h)) | inhibition at 1 µM (Flt3 (h)) | Compound | C1 score (inhibition of Abl human) (Abl (h)) | C3 score (inhibition of cSRC human) (cSRC (h)) | C4 score (inhibition of Fes human) (Fes (h)) | C6 score (inhibition of Flt3 human) (Flt3 (h)) |
| --- | --- | --- | --- | --- | --- | --- | --- | --- |
| > 80% | > 80% | > 80% | 10 to 30% | CC1(C)NC(=O)Cc2ccc(Cl)cc2Nc2cc(ncn2)Nc2ccc(OCCCN3CCOCC3)c(c2)OCCNC1=O [Compound 106, 1H,7H-6,2:8,12-dimetheno-13,1,3,5,7,16,19-benzoxahexaazacyclotricosine-17,20(14H)-dione, 24-chloro-15,16,18,19,21-pentahydro-18,18-dimethyl-11-[3-(4-morpholinyl)propoxy]-] |  |  |  |  |
| > 80% | > 80% | 60 to 80% |  | COc1ccc2cc1OCCCNC(=O)C(C)(C)NC(=O)Cc1ccc(Cl)cc1Nc1cc(ncn1)N2 [Compound 105, 6,2:8,12-dimetheno-7H-13,1,3,5,7,17,20-benzoxahexaazacyclotetracosine-18,21-dione, 25-chloro-1,14,15,16,17,19,20,22-octahydro-11-methoxy-19,19-dimethyl-] |  |  |  |  |
| 10 to 30% | 10 to 30% | 60 to 80% | > 80% | N#Cc1cnc2nc1Nc1cccc(c1)OCC(=O)NCCCOc1cccc(c1)N2 [Compound 25, 14,21-dioxa-2,4,8,17,28-pentaazatetracyclo[20.3.1.1~3,7~.1~9,13~]octacosa-1(26),3,5,7(28),9,11,13(27),22,24-nonaene-6-carbonitrile, 16-oxo-] |  |  |  |  |
|  |  |  |  | COc1ccc2cc1OCCCCCCOc1ccc(Br)cc1Nc1cc(ncn1)N2 [Compound 36, 1H,7H-2,6: 12,8-dimetheno-13,20,1,3,5,7-benzodioxatetraazacyclodocosine, 23-bromo-14,15,16,17,18,19-hexahydro-11-methoxy-] | 2 (Score 2=30-60% inhibition) | 1 (Score 1=10-30% inhibition) | 1 (Score 1=10-30% inhibition) | 1 (Score 1=10-30% inhibition) |
|  |  |  |  | 12,8-metheno-6,2-nitrilo-7H-13,1,5,7,16,19-benzoxapentaazacyclodocosine-3-carbonitrile, 23-chloro-1,14,15,16,17,18,19,20-octahydro-11-methoxy-19-methyl-17-oxo- [Compound 32] | 3 (Score 3=60-80% inhibition) | 4 (Score 4=>80% inhibition) | 4 (Score 4=>80% inhibition) | 4 (Score 4=>80% inhibition) |
|  |  |  |  | COc1ccc2cc1OCCCCCCCOc1ccc(Br)cc1Nc1cc(ncn1)N2 [Compound 37, 1H,7H-2,6: 12,8-dimetheno-14H-13,21,1,3,5,7-benzodioxatetraazacyclotricosine, 24-bromo-15,16,17,18,19,20-hexahydro-11-methoxy-] | 2 (Score 2=30-60% inhibition) | 1 (Score 1=10-30% inhibition) | 1 (Score 1=10-30% inhibition) |  |
| 10 to 30% | 10 to 30% | 30 to 60% | 60 to 80% | N#Cc1cnc2nc1Nc1cccc(c1)OCC(=O)NCCCCOc1cccc(c1)N2 [Compound 26, 14,22-dioxa-2,4,8,17,29-pentaazatetracyclo[21.3.1.1~3,7~.1~9,13~]nonacosa-1(27),3,5,7(29),9,11,13(28),23,25-nonaene-6-carbonitrile, 16-oxo-] |  |  |  |  |
|  | 10 to 30% | 10 to 30% | 10 to 30% | COc1ccc2c(c1)OCCCCCCOc1ccc(Cl)cc1Nc1cc(ncn1)N2 [Compound 34, 11H-6,10-metheno-5H-dibenzo[b,k][1,13,4,6,8,10]dioxatetraazacyclononadecine, 13-chloro-17,18,19,20,21,22-hexahydro-2-methoxy-] |  |  |  |  |
| 10 to 30% | 30 to 60% | 10 to 30% | 60 to 80% | N#Cc1cnc2nc1Nc1cccc(c1)OCCCNC(=O)COc1cccc(c1)N2 [Compound 28, 14,21-dioxa-2,4,8,18,28-pentaazatetracyclo[20.3.1.1~3,7~.1~9,13~]octacosa-1(26),3,5,7(28),9,11,13(27),22,24-nonaene-6-carbonitrile, 19-oxo-] |  |  |  |  |
| > 80% | > 80% | 60 to 80% |  | COc1ccc2cc1OCCNC(=O)CNC(=O)Cc1ccc(Cl)cc1Nc1cc(ncn1)N2 [Compound 103, 1H,7H-6,2:12,8-dimetheno-13,1,3,5,7,16,19-benzoxahexaazacyclotricosine-17,20(14H)-dione, 24-chloro-15,16,18,19,21-pentahydro-11-methoxy-] |  |  |  |  |
|  |  |  |  | 1H,7H-2,6: 12,8-dimetheno-14H-13,19,1,3,5,7-benzodioxatetraazacycloheneicosine, 22-bromo-15,16,17,18-tetrahydro-11-methoxy- [Compound 35] | 4 (Score 4=>80% inhibition) | 1 (Score 1=10-30% inhibition) | 1 (Score 1=10-30% inhibition) | 2 (Score 2=30-60% inhibition) |
